According to ChEMBL document CHEMBL3046689, “Volatile aldehydes are promising broad-spectrum postharvest insecticides” (J Agric Food Chem, 2000):
The source made the active and inactive calls. The rule behind the calls is not given here.

What was measured:
[1] = tested on: Lactuca sativa; assay: Phytotoxicity in naked Lactuca sativa (lettuce) assessed as change in visual quality after compound application through two-tier reduced pressure fumigation at 30 mmHg for 0.5 hr and then 760 mmHg for 1.5 hr at 23 +/- 1 degC after 2 hr; type: organism-based; details: in vivo
[2] = tested on: Myzus persicae; assay: Insecticidal activity against Myzus persicae (green peach aphid) placed under third leaf of naked Iceburg lettuce heads and after compound application for 2 hr through two-tier reduced pressure fumigation at 30 mmHg for 0.5 hr and then 760 mmHg for 1.5 hr at 23 +/- 1 degC measured after 24 hr; type: functional
[3] = tested on: Citrus x paradisi; assay: Phytotoxicity in Citrus x paradisi (grape fruit) assessed as induction of visual damage after compound application for 1 hr through two-tier reduced pressure fumigation at 30 mmHg for 0.5 hr and then 760 mmHg for 1.5 hr at 23 +/- 1 degC; type: organism-based; details: in vivo
[4] = tested on: Brassica oleracea var. capitata; assay: Phytotoxicity in Brassica oleracea var. capitata (cabbage) assessed as induction of visual damage after compound application for 1 hr through two-tier reduced pressure fumigation at 30 mmHg for 0.5 hr and then 760 mmHg for 1.5 hr at 23 +/- 1 degC; type: organism-based; details: in vivo
[5] = tested on: Lactuca sativa; assay: Phytotoxicity in wrapped Lactuca sativa (lettuce) assessed as induction of visual damage after compound application for 1 hr through two-tier reduced pressure fumigation at 30 mmHg for 0.5 hr and then 760 mmHg for 1.5 hr at 23 +/- 1 degC; type: organism-based; details: in vivo
[6] = tested on: Brassica oleracea var. italica; assay: Phytotoxicity in Brassica oleracea var. italica assessed as induction of visual damage after compound application for 1 hr through two-tier reduced pressure fumigation at 30 mmHg for 0.5 hr and then 760 mmHg for 1.5 hr at 23 +/- 1 degC; type: organism-based; details: in vivo
[7] = tested on: Phaseolus vulgaris; assay: PhytoToxicity in Phaseolus vulgaris (beans) assessed as induction of olfactory damage after compound application for 1 hr through two-tier reduced pressure fumigation at 30 mmHg for 0.5 hr and then 760 mmHg for 1.5 hr at 23 +/- 1 degC; type: organism-based; details: in vivo
[8] = tested on: Oryza sativa; assay: Phytotoxicity in Oryza sativa (rice) assessed as induction of olfactory damage after compound application for 1 hr through two-tier reduced pressure fumigation at 30 mmHg for 0.5 hr and then 760 mmHg for 1.5 hr at 23 +/- 1 degC; type: organism-based; details: in vivo
[9] = tested on: Vitis vinifera; assay: Phytotoxicity in Vitis vinifera assessed as induction of olfactory damage after compound application for 1 hr through two-tier reduced pressure fumigation at 30 mmHg for 0.5 hr and then 760 mmHg for 1.5 hr at 23 +/- 1 degC; type: organism-based; details: in vivo
[10] = tested on: Persea americana; assay: Phytotoxicity in Persea americana (avocado) assessed as induction of olfactory damage after compound application for 1 hr through two-tier reduced pressure fumigation at 30 mmHg for 0.5 hr and then 760 mmHg for 1.5 hr at 23 +/- 1 degC; type: organism-based; details: in vivo
[11] = tested on: Tetranychus urticae; assay: Insecticidal activity against Tetranychus urticae (two-spotted spider mite); type: functional, organism-based
[12] = tested on: Brevicoryne brassicae; assay: Insecticidal activity against Brevicoryne brassicae (cabbage aphids); type: functional, organism-based
[13] = tested on: Frankliniella occidentalis; assay: Insecticidal activity against Frankliniella occidentalis (western flower thrips); type: functional, organism-based
[14] = tested on: Bemisia; assay: Insecticidal activity against Bemisia sp.; type: functional, organism-based
[15] = tested on: Pseudococcus affinis; assay: Insecticidal activity against Pseudococcus affinis; type: functional, organism-based
[16] = tested on: Pseudococcus viburni; assay: Insecticidal activity against Pseudococcus viburni; type: functional, organism-based
[17] = tested on: Phaseolus vulgaris; assay: PhytoToxicity in Phaseolus vulgaris (beans) assessed as induction of visual damage after compound application for 1 hr through two-tier reduced pressure fumigation at 30 mmHg for 0.5 hr and then 760 mmHg for 1.5 hr at 23 +/- 1 degC; type: organism-based; details: in vivo, other
[18] = tested on: Oryza sativa; assay: Phytotoxicity in Oryza sativa (rice) assessed as induction of visual damage after compound application for 1 hr through two-tier reduced pressure fumigation at 30 mmHg for 0.5 hr and then 760 mmHg for 1.5 hr at 23 +/- 1 degC; type: organism-based; details: in vivo
[19] = tested on: Vitis vinifera; assay: (§1) Phytotoxicity in Vitis vinifera assessed as induction of visual damage after compound application for 1 hr through two-tier reduced pressure fumigation at 30 mmHg for 0.5 hr and then 760 mmHg for 1.5 hr at 23 +/- 1 degC; type: organism-based; details: in vivo
[20] = tested on: Vitis vinifera; assay: as §1; type: organism-based; details: in vivo; remark: listed apart in the source
[21] = tested on: Lactuca sativa; assay: Phytotoxicity in naked Lactuca sativa (lettuce) assessed as residual aldehyde odor after compound application through two-tier reduced pressure fumigation at 30 mmHg for 0.5 hr and then 760 mmHg for 1.5 hr at 23 +/- 1 degC after 2 hr; type: organism-based; details: in vivo
[22] = tested on: Citrus limon; assay: Phytotoxicity in Citrus limon (lemon) assessed as induction of visual damage after compound application for 1 hr through two-tier reduced pressure fumigation at 30 mmHg for 0.5 hr and then 760 mmHg for 1.5 hr at 23 +/- 1 degC; type: organism-based; details: citrus x limon, in vivo
[23] = tested on: Citrus sinensis; assay: Phytotoxicity in Citrus sinensis (orange) assessed as induction of visual damage after compound application for 1 hr through two-tier reduced pressure fumigation at 30 mmHg for 0.5 hr and then 760 mmHg for 1.5 hr at 23 +/- 1 degC; type: organism-based; details: in vivo
[24] = tested on: Citrus limon; assay: Phytotoxicity in Citrus limon (lemon) assessed as induction of olfactory damage after compound application for 1 hr through two-tier reduced pressure fumigation at 30 mmHg for 0.5 hr and then 760 mmHg for 1.5 hr at 23 +/- 1 degC; type: organism-based; details: citrus x limon, in vivo
[25] = tested on: Citrus sinensis; assay: Phytotoxicity in Citrus sinensis (orange) assessed as induction of olfactory damage after compound application for 1 hr through two-tier reduced pressure fumigation at 30 mmHg for 0.5 hr and then 760 mmHg for 1.5 hr at 23 +/- 1 degC; type: organism-based; details: in vivo
[26] = tested on: Brassica oleracea var. capitata; assay: Phytotoxicity in Brassica oleracea var. capitata (cabbage) assessed as induction of olfactory damage after compound application for 1 hr through two-tier reduced pressure fumigation at 30 mmHg for 0.5 hr and then 760 mmHg for 1.5 hr at 23 +/- 1 degC; type: organism-based; details: in vivo
[27] = tested on: Brassica oleracea var. italica; assay: Phytotoxicity in Brassica oleracea var. italica assessed as induction of olfactory damage after compound application for 1 hr through two-tier reduced pressure fumigation at 30 mmHg for 0.5 hr and then 760 mmHg for 1.5 hr at 23 +/- 1 degC; type: organism-based; details: in vivo
[28] = tested on: Lactuca sativa; assay: Phytotoxicity in wrapped Lactuca sativa (lettuce) assessed as induction of olfactory damage after compound application for 1 hr through two-tier reduced pressure fumigation at 30 mmHg for 0.5 hr and then 760 mmHg for 1.5 hr at 23 +/- 1 degC; type: organism-based; details: in vivo
[29] = tested on: Lactuca sativa; assay: Phytotoxicity in naked Lactuca sativa (lettuce) assessed as change in visual quality after compound application for 1 hr through two-tier reduced pressure fumigation at 30 mmHg for 0.5 hr and then 760 mmHg for 1.5 hr at 23 +/- 1 degC; type: organism-based; details: in vivo
[30] = tested on: Lactuca sativa; assay: Phytotoxicity in naked Lactuca sativa (lettuce) after compound application for 1 hr through two-tier reduced pressure fumigation at 30 mmHg for 0.5 hr and then 760 mmHg for 1.5 hr at 23 +/- 1 degC; type: organism-based; details: in vivo
[31] = tested on: Myzus persicae; assay: Insecticidal activity against Myzus persicae (green peach aphid) infested wrapped lettuce applied for 1 hr through two-tier reduced pressure fumigation at 30 mmHg for 0.5 hr and then 760 mmHg for 1.5 hr at 23 +/- 1 degC measured 24 hr; type: functional, organism-based

`CCC=O` [PROPIONALDEHYDE] was tested, and the Activity [1] was “Toxic”, the CTP [2] was 304 mg/L.hr and the LD90 [2] was 124.5 mg/L. The Activity [3] was “Non-toxic”, the Activity [4] was “Non-toxic” and the Activity [5] was “Non-toxic”. For the same compound, the Activity [6] was “Non-toxic”, the Activity [7] was “Non-toxic” and the Activity [8] was “Non-toxic”. For the same compound, the Activity [9] was “Non-toxic”, the Activity [10] was “Non-toxic” and the Activity [11] was “inactive”. The Activity [12] was “inactive”, the Activity [13] was “Active” and the Activity [14] was “Active”. The Activity [15] was “Active”, the Activity [16] was “Active” and the Activity [17] was “Non-toxic”. For the same compound, the Activity [18] was “Non-toxic”, the Activity [19] was “Non-toxic” and the Activity [20] was “Non-toxic”. For the same compound, the Activity [21] was “Toxic”, the Activity [22] was “Non-toxic” and the Activity [23] was “Non-toxic”. The Activity [24] was “Non-toxic”, the Activity [25] was “Non-toxic” and the Activity [26] was “Toxic”. The Activity [27] was “Toxic”, the Activity [28] was “Toxic” and the Activity [29] was “Toxic”. For the same compound, the Activity [30] was “Toxic” and the Activity [31] was “Active”.
